Earlier results, collected in patent publication US20070026067A1, “Liquid formulations for controlled delivery of benzisoxazole derivatives” (priority 2005, published 2007).

How the values were obtained:
[1] = in vivo

SMILES | solubility in water | half-life [1]
Cc1nc2n(c(=O)c1CCN1CCC(c3noc4cc(F)ccc34)CC1)CCCC2O (stereo not drawn) [Paliperidone] | practically insoluble | about one
Cc1nc2n(c(=O)c1CCN1CCC(c3noc4cc(F)ccc34)CC1)CCCC2 [Risperidone] | practically insoluble | 
